Data set [1] concerns MV-4-11 (human, Acute Myeloid Leukemia cell line) cells. Description: Cell growth inhibition assay, GI50 of MV-4-11. The data set is classed as cell-based. The settings on record: Homo sapiens, MV4-11, 72 h, MV-4-11 cells. Put shortly:
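MV-4-11 AML cells (5×10^4/well, IMDM with 10% FBS) treated in duplicate with serially diluted compounds for 72 hours at 37 °C. Viability read as absorbance at 490 nm after CellTiter 96 Aqueous One (MTS) addition; GI50 calculated from the concentration-response.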

In data set [2] the target is cDNA-expressed human hepatic CYP3A4 (Homo sapiens (Human), UniProt P08684). Kind of data set: Measurement of CYP (IC50 of P450 CYP3A4), BFC substrate. It counts as in vitro ADME. The settings on record: 20 minutes. Put shortly: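 cDNA-expressed human CYP3A4 supersomes in 0.1M potassium phosphate pH 7.4 with 8.3 mM MgCl2, 1.67 mM EDTA and 0.25 mM NADPH; compounds in acetonitrile (<1% final). Reaction started with 30 µM BFC, 20 min at 37. 7-Hydroxy-4-trifluoromethyl-coumarin read by fluorescence (ex 409/em 530 nm).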

Molecules are shown by their SMILES.

Sequence of cDNA-expressed human hepatic CYP3A4 (P08684 whole entry): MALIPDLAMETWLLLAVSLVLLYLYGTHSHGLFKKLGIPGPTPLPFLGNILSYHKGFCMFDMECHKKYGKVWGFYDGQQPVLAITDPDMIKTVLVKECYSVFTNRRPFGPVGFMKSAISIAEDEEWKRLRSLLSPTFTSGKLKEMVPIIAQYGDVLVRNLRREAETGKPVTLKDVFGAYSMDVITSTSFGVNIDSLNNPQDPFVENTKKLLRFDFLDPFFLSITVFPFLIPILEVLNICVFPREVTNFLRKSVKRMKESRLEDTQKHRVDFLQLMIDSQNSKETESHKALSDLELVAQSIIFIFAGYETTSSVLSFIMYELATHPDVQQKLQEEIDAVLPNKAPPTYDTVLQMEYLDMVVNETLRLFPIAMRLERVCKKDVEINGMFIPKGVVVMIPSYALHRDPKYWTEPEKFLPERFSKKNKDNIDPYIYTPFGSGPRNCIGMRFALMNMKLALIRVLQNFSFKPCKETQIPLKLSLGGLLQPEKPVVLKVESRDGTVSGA

What is called GI50 is the concentration giving 50% growth inhibition. A word on the IC50: it is the concentration that gives 50% inhibition. A lower IC50 goes with greater potency in that assay. Take `C=CCN1CC(=O)N2[C@@H](Cc3ccc(O)cc3)C(=O)N(Cc3cccc4c(C(=O)NCc5ccc(N(C)C)nc5)cn(C)c34)C[C@@H]2N1C(=O)NCc1ccccc1` [Compound F-47]: growth in data set [1] was halved (GI50) at 6.9 nM. In addition, the IC50 in data set [2] turned out to be 2050 nM.
In the same order, the values of `C=CCN1CC(=O)N2[C@@H](Cc3ccc(O)cc3)C(=O)N(Cc3cccc4c(C(=O)NCc5ccnc(N(C)C)c5)cn(C)c34)C[C@@H]2N1C(=O)NCc1ccccc1` [Compound F-48] are 10.7 nM and 2180 nM.
In the same order, the values of `C=CCN1CC(=O)N2[C@@H](Cc3ccc(O)cc3)C(=O)N(Cc3cccc4c(C(=O)NC5CCN(C(=O)OC(C)(C)C)CC5)cn(C)c34)C[C@@H]2N1C(=O)NCc1ccccc1` [Compound F-61] are 1.6 nM and 5650 nM.
The like results for `C=CCN1CC(=O)N2[C@@H](Cc3ccc(O)cc3)C(=O)N(Cc3cccc4c(C(=O)NC5CCN(C(=O)c6ccc(N(C)C)cc6)CC5)cn(C)c34)C[C@@H]2N1C(=O)NCc1ccccc1` [Compound F-66] were, in that order, 17.5 nM and 6150 nM.
In turn, `C=CCN1CC(=O)N2[C@@H](Cc3ccc(O)cc3)C(=O)N(Cc3cccc4c(C(=O)NC5CCN(C(=O)c6ccc(N7CCN(C)CC7)cc6)CC5)cn(C)c34)C[C@@H]2N1C(=O)NCc1ccccc1` [Compound F-67] came in with a 50% growth inhibitory concentration (GI50) in data set [1] of 2.5 nM. In data set [2], this molecule registered an IC50 of 9650 nM.
The like results for `C=CCN1CC(=O)N2[C@@H](Cc3ccc(O)cc3)C(=O)N(Cc3cccc4c(C(=O)Nc5ccc(OC)cc5)cn(C)c34)C[C@@H]2N1C(=O)NCc1ccccc1` [Compound G-3] were, in that order, 5.7 nM and 2610 nM.
`C=CCN1CC(=O)N2C(CN(Cc3cccc4c(C(=O)Nc5ccc(OC)nc5)cn(C)c34)C(=O)[C@@H]2Cc2ccc(O)cc2)N1C(=O)NCc1ccccc1` (stereo partly drawn) [Compound G-5]: the GI50 in data set [1] was 8.8 nM. In data set [2], this molecule had an IC50 of 2160 nM.
The like results for `C=CCN1CC(=O)N2[C@@H](Cc3ccc(O)cc3)C(=O)N(Cc3cccc4c(C(=O)Nc5ccc(OC(C)(C)C)cc5)cn(C)c34)C[C@@H]2N1C(=O)NCc1ccccc1` [Compound G-6] were, in that order, 14 nM and 19100 nM.
The like results for `C=CCN1CC(=O)N2C(CN(Cc3cccc4c(C(=O)Nc5ccc(CCO)cc5)cn(C)c34)C(=O)[C@@H]2Cc2ccc(O)cc2)N1C(=O)NCc1ccccc1` (stereo partly drawn) [Compound G-10] were, in that order, 1.7 nM and 7400 nM.
The like results for `C=CCN1CC(=O)N2[C@@H](Cc3ccc(O)cc3)C(=O)N(Cc3cccc4c(C(=O)Nc5ccc(OCCOC)nc5)cn(C)c34)C[C@@H]2N1C(=O)NCc1ccccc1` [Compound G-11] were, in that order, 1.8 nM and 7620 nM.
Take `C=CCN1CC(=O)N2[C@@H](Cc3ccc(O)cc3)C(=O)N(Cc3cccc4c(C(=O)Nc5ccc(OCCN(C)C)nc5)cn(C)c34)C[C@@H]2N1C(=O)NCc1ccccc1` [Compound G-12]: halving of growth in data set [1] (GI50) required 9.9 nM. The IC50 in data set [2] is 10100 nM.
In the same order, the values of `C=CCN1CC(=O)N2[C@@H](Cc3ccc(O)cc3)C(=O)N(Cc3cccc4c(C(=O)Nc5ccc(OCCCN(C)C)nc5)cn(C)c34)C[C@@H]2N1C(=O)NCc1ccccc1` [Compound G-13] are 9 nM and 13000 nM.
In the same order, the values of `C=CCN1CC(=O)N2[C@@H](Cc3ccc(O)cc3)C(=O)N(Cc3cccc4c(C(=O)Nc5ccc(N(C)C)nc5)cn(C)c34)C[C@@H]2N1C(=O)NCc1ccccc1` [Compound G-15] are 1.2 nM and 6750 nM.
In the same order, the values of `C=CCN1CC(=O)N2[C@@H](Cc3ccc(O)cc3)C(=O)N(Cc3cccc4c(C(=O)Nc5ccc(N(C)CCO)nc5)cn(C)c34)C[C@@H]2N1C(=O)NCc1ccccc1` [Compound G-18] are 1.5 nM and 3450 nM.
In data set [1], `C=CCN1CC(=O)N2C(Cc3ccc(O)cc3)C(=O)N(Cc3cccc4c(C(=O)Nc5ccc(NCC(C)(C)C)nc5)cn(C)c34)CC2N1C(=O)NCc1ccccc1` (stereo not drawn) [Compound G-22] returned a GI50 of 1.4 nM. The molecule also registered an IC50 in data set [2] of 2380 nM.

These data come from patent US8940739B2, “Compound of a reverse-turn mimetic and a production method and use therefor” (JW Pharmaceutical Corporation, priority 2010, dated 2015).
